Experiments:
[1] = tested on: STZ-treated rats with neuropathy; assay: Coat state score; format: in vivo, rat; conditions: chronic p.o. treatment from day 28, day 42
Method: On the day of diabetic state induction, rats were deprived of food for 6 h (from 8 a.m. to 2 p.m.). A single i.p. injection was applied with 55 mg/kg STZ in the ice-cold citrate buffer (0.1 M pH 4.4). The observed polydipsia, polyuria, reduced thriving with lower body weight, and poor coating appearance indirectly indicated the development of diabetes. On day 28, after 6 h of fasting, blood glucose was measured with an Xpress Statstrip Glucometer (Nova Biomedical Corporation, Waltham, MA, USA) from the tail vein. A cut-off value of blood glucose >13 mmol/l was adopted. […] Controls were once i.p. injected with ice-cold citrate buffer 0.1 M pH 4.4 only.
Three animals per cage were housed for the experiment 2 (Fig. 3B). […] Body weight (BW), coat score (CS), CPT, R–S, and FT were evaluated on day 28th post-STZ, and after that, rats were distributed into the treatment groups as follows. • C-Veh – Controls, vehiculum treatment (n = 12) • NP-Veh – STZ-treated rats with neuropathy, vehiculum treatment (n = 12) • NP-KB-R7943 – 5 mg - STZ-treated rats, with neuropathy, KB-R7943 5 mg/kg treatment (n = 12) • NP-KB-R7943 – 10 mg – STZ-treated rats, with neuropathy, KB-R7943 10 mg/kg (n = 12) • NP-AMT – 10 mg - STZ-treated rats, with neuropathy, amitriptyline 10 mg/kg (n = 12). […]
Coat state, water consumption, and body weight were evaluated weakly. […] Water consumption was measured per cage. […]

[2] = tested on: NCX3; design: method as in PMID 9688596; conditions: cited from earlier work

N=C(N)SCCc1ccc(OCc2ccc([N+](=O)[O-])cc2)cc1 [KB-R7943, [(2-{4-[(4-nitrophenyl)methoxy]phenyl}ethyl)sulfanyl]methanimidamide]
effect on coat score [1]: ameliorated | potency as inhibitor of NCX3 relative to NCX1 and NCX2 [2]: three-fold more potent inhibitor of NCX3 than NCX1 and NCX2
